Data as given in the supplement of paper PMC10307832.

What was measured:
Experiment in all cases: relative viability (nuclei count vs DMSO), 5 days (fraction); higher = more cells survive
Alisertib = compound: COc1cc(Nc2ncc3c(n2)-c2ccc(Cl)cc2C(c2c(F)cccc2OC)=NC3)ccc1C(=O)O [Alisertib]
Method in brief: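 Viability was defined as treated-well nuclei divided by vehicle-well nuclei, with the median taken over replicate plates. Cells from lung cancer lines sat overnight at 37 °C in 1536-well plates, received five √10-spaced library-drug doses by pinning on vehicle-anchored plates, and grew 5 days without medium change before one-step fixation, permeabilisation and Hoechst staining, 4× imaging and MetaXpress nuclear counts. Only plates with control CV under 25% and at least one doubling were kept.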

Alisertib + Navitoclax = compound: COc1cc(Nc2ncc3c(n2)-c2ccc(Cl)cc2C(c2c(F)cccc2OC)=NC3)ccc1C(=O)O [Alisertib] + CC1(C)CCC(c2ccc(Cl)cc2)=C(CN2CCN(c3ccc(C(=O)NS(=O)(=O)c4ccc(N[C@H](CCN5CCOCC5)CSc5ccccc5)c(S(=O)(=O)C(F)(F)F)c4)cc3)CC2)C1 [Navitoclax] (partner 0.5 µM)
Method in brief: (§1)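 Medians of duplicate plates are given as relative viability. That measure is the nuclei count in treated wells divided by the count in vehicle wells. Counts were taken on 4× images of lung cancer cell lines in 1536-well plates, 5 days after pin-tool dosing the day after seeding with one drug alone or a fixed anchor-drug dose plus five library-drug doses (not always all listed) in √10 steps.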

Alisertib + Tozasertib = compound: COc1cc(Nc2ncc3c(n2)-c2ccc(Cl)cc2C(c2c(F)cccc2OC)=NC3)ccc1C(=O)O [Alisertib] + Cc1cc(Nc2cc(N3CCN(C)CC3)nc(Sc3ccc(NC(=O)C4CC4)cc3)n2)n[nH]1 [Tozasertib] (partner 0.1 µM)
Method in brief: as §1

Alisertib + Phenformin = compound: COc1cc(Nc2ncc3c(n2)-c2ccc(Cl)cc2C(c2c(F)cccc2OC)=NC3)ccc1C(=O)O [Alisertib] + N=C(N)NC(=N)NCCc1ccccc1 [Phenformin] (partner 250 µM)
Method in brief: as §1

Cell Line	relative viability (Alisertib; 0.005 µM)	relative viability (Alisertib; 0.01581 µM)	relative viability (Alisertib; 0.05 µM)	relative viability (Alisertib; 0.1581 µM)	relative viability (Alisertib; 0.5 µM)	relative viability (Alisertib + Navitoclax; first compound 0.005 µM)	relative viability (Alisertib + Navitoclax; first compound 0.01581 µM)	relative viability (Alisertib + Navitoclax; first compound 0.05 µM)	relative viability (Alisertib + Navitoclax; first compound 0.1581 µM)	relative viability (Alisertib + Navitoclax; first compound 0.5 µM)	relative viability (Alisertib + Tozasertib; first compound 0.005 µM)	relative viability (Alisertib + Tozasertib; first compound 0.01581 µM)	relative viability (Alisertib + Tozasertib; first compound 0.05 µM)	relative viability (Alisertib + Tozasertib; first compound 0.1581 µM)	relative viability (Alisertib + Tozasertib; first compound 0.5 µM)	relative viability (Alisertib + Phenformin; first compound 0.005 µM)	relative viability (Alisertib + Phenformin; first compound 0.01581 µM)	relative viability (Alisertib + Phenformin; first compound 0.05 µM)	relative viability (Alisertib + Phenformin; first compound 0.1581 µM)	relative viability (Alisertib + Phenformin; first compound 0.5 µM)
NCI-H1437	0.896	0.836	0.605	0.344	0.203	1.02	0.892	0.498	0.282	0.144	0.38	0.372	0.297	0.269	0.195	0.236	0.286	0.251	0.142	0.118
NCI-H1650	0.846	0.736	0.289	0.192	0.224	0.967	0.613	0.286	0.145	0.131	0.46	0.394	0.2	0.246	0.202	0.38	0.381	0.167	0.137	0.141
NCI-H1651	0.859	0.892	0.571	0.298	0.209	1.01	0.832	0.517	0.14	0.2	0.492	0.617	0.273	0.269	0.205	0.218	0.222	0.147	0.101	0.175
NCI-H1666	0.904	0.814	0.689	0.534	0.438	0.94	0.779	0.435	0.281	0.291	0.625	0.412	0.365	0.391	0.355	0.522	0.49	0.506	0.426	0.344
NCI-H1734	0.802	0.731	0.417	0.299	0.193	0.851	0.782	0.366	0.164	0.0931	0.262	0.231	0.22	0.195	0.188	0.314	0.298	0.256	0.221	0.176
NCI-H1755	0.939	0.963	0.805	0.386	0.36	0.928	0.99	0.682	0.356	0.181	0.6	0.569	0.422	0.386	0.311	0.558	0.498	0.517	0.397	0.262
NCI-H1793	0.745	0.473	0.411	0.264	0.233	0.428	0.339	0.247	0.17	0.148	0.45	0.231	0.269	0.176	0.185	0.312	0.233	0.291	0.191	0.148
NCI-H1915	0.816	0.773	0.572	0.383	0.25	0.686	0.577	0.275	0.235	0.13	0.404	0.272	0.241	0.193	0.179	0.309	0.274	0.241	0.229	0.173
NCI-H1944	0.923	1.08	0.789	0.39	0.273	1.06	1.01	0.969	0.415	0.194	0.242	0.239	0.258	0.195	0.187	0.182	0.206	0.193	0.166	0.112
NCI-H1975	0.85	0.828	0.565	0.317	0.207	1.14	1.01	0.503	0.344	0.175	0.695	0.65	0.336	0.212	0.124	0.405	0.375	0.265	0.176	0.137
NCI-H1993	0.906	0.92	0.621	0.468	0.516	1.12	1.04	0.463	0.499	0.542	0.572	0.542	0.536	0.524	0.512	0.455	0.495	0.5	0.511	0.449
NCI-H2009	0.926	0.97	0.513	0.303	0.254	1.08	1.11	0.349	0.302	0.105	0.732	0.663	0.427	0.336	0.22	0.486	0.462	0.312	0.228	0.203
NCI-H2023	0.838	0.727	0.566	0.227	0.109	0.955	0.885	0.656	0.282	0.132	0.419	0.368	0.263	0.215	0.0951	0.428	0.388	0.28	0.157	0.0966
NCI-H2085	0.936	0.955	0.572	0.327	0.385	1.15	1.03	0.401	0.278	0.247	0.723	0.669	0.526	0.476	0.394	0.597	0.651	0.42	0.259	0.327
NCI-H2087	0.941	0.807	0.312	0.176	0.201	0.868	0.742	0.164	0.153	0.153	0.204	0.249	0.126	0.158	0.144	0.423	0.372	0.13	0.12	0.105
NCI-H2126	0.938	0.941	0.699	0.361	0.314	0.819	0.874	0.574	0.276	0.266	0.798	0.637	0.405	0.293	0.288	0.482	0.446	0.413	0.257	0.266
NCI-H2170	0.94	0.883	0.815	0.423	0.323	0.564	0.55	0.238	0.232	0.178	0.658	0.674	0.321	0.261	0.161	0.388	0.374	0.395	0.276	0.207
NCI-H2228	0.778	0.85	0.531	0.158	0.189	0.829	0.672	0.564	0.0729	0.0587	0.322	0.19	0.147	0.132	0.109	0.277	0.287	0.17	0.0908	0.0966
NCI-H2347	1.01	0.906	0.862	0.703	0.428	0.742	0.695	0.459	0.42	0.329	0.517	0.549	0.415	0.401	0.273	0.346	0.373	0.299	0.411	0.242
NCI-H2405	0.952	0.967	0.833	0.41	0.282	0.873	0.778	0.574	0.198	0.135	0.772	0.618	0.308	0.293	0.258	0.366	0.46	0.371	0.28	0.247
NCI-H3122	0.943	0.977	0.831	0.405	0.295	1.04	0.992	0.664	0.592	0.237	0.384	0.315	0.235	0.27	0.191	0.376	0.371	0.37	0.248	0.142
PC-3 [JPC-3]	0.974	0.976	0.932	0.48	0.398	0.757	0.79	0.401	0.306	0.281	0.893	0.814	0.548	0.551	0.387	0.488	0.456	0.484	0.377	0.293
PC-14	0.827	0.846	0.584	0.156	0.0817	0.924	0.881	0.663	0.362	0.0849	0.566	0.492	0.26	0.0568	0.06	0.481	0.453	0.363	0.0963	0.0647
RERF-LC-KJ	0.929	0.792	0.597	0.254	0.247	1.06	0.838	0.415	0.178	0.284	0.511	0.386	0.253	0.27	0.218	0.382	0.377	0.246	0.219	0.233
SK-LU-1	0.856	0.802	0.447	0.333	0.232	0.841	0.736	0.101	0.139	0.112	0.303	0.286	0.219	0.224	0.205	0.455	0.462	0.22	0.21	0.142
SK-MES-1	0.913	0.947	0.561	0.326	0.16	1.09	0.892	0.315	0.139	0.0931	0.819	0.705	0.429	0.207	0.135	0.643	0.684	0.502	0.38	0.146
SW 1573	0.919	0.644	0.372	0.213	0.147	0.954	0.737	0.219	0.0904	0.0636	0.135	0.153	0.132	0.147	0.158	0.371	0.256	0.178	0.113	0.0928
UMC-11	0.437	0.3	0.211	0.176	0.186	0.241	0.163	0.121	0.115	0.125	0.201	0.23	0.201	0.213	0.219	0.235	0.192	0.176	0.174	0.164
